Source: the pKa sets of Baltruschat and Czodrowski (2020)

Details: acidic group

In order of rising pKa:
1. CCCCNC(O)=S  0.67
2. Nc1[nH+]c2nc[nH]c2c(N)[n+]1O  1
3. C[n+]1cc(O)ccn1  1.74
4. COc1ccc(O)c(C[NH2+]C(CO)C(=O)O)c1 (stereo not given)  2.1
5. N#CC(Cc1ccccc1)C(=O)O (stereo not given)  2.24
6. CCC([NH3+])C(=O)O (stereo not given)  2.29
7. CC/C=C/CC1=[NH+]C(C(=O)O)[C@@H]2SC(C)(C)C(C(=O)O)N12 (stereo not given in full)  2.4
8. CCCCC#CC(=O)O  2.61
9. [NH3+]C[C@H](O)C(=O)O  2.78
10. CC[NH+](CC)Cc1cc([N+](=O)[O-])c2ccccc2c1O  2.82
11. O=C(O)[C@@H](O)Cc1c[nH]c[nH+]1  2.99
12. O=P1(O)CCC1  3.07
13. O=C(O)c1cc(Br)cs1  3.11
14. O=C(O)c1cc(-c2ccccc2)oc(=O)c1  3.3
15. CN(C)C(=S)SCC(=O)O  3.34
16. C[NH+]1C[C@@H](C(=O)O)C[C@@]2(O)c3cccc4[nH]cc(c34)C[C@H]12  3.38
17. O=C(O)Cn1ccc2ccccc21  3.4
18. O=C(O)CC(=O)/C=N/O  3.5
19. CCOCCn1c(N2CCC[NH+](CCCCn3cc(C(=O)O)cn3)CC2)[nH+]c2ccccc21  3.7
20. Brc1ccc(-c2nnn[nH]2)cc1  3.73
21. Cc1cc(I)ccc1C(=O)O  3.79
22. O=C(O)C1(O)CCC1  3.88
23. O=C(O)[C@H]1O[C@H]1C(=O)[O-]  3.92
24. CNC(=O)/C=C\C(=O)O  3.98
25. CC(C)Oc1cccc(C(=O)O)c1  4.15
26. [NH3+]CCCCCC#CC#CCCC(=O)O  4.17
27. O=C(O)C1(O)CCCCC1  4.18
28. Cc1c(C(=O)O)[nH]c2ccccc12  4.33
29. Cc1ccc(C(=O)O)cc1C  4.41
30. Cn1cc(O)[nH+]c1N  4.9
31. O=C(O)CCc1nnnn1-c1ccccc1  5
32. C[C@H](C1CC1C(=O)O)[C@H]1CC[C@H]2[C@@H]3[C@@H](O)C[C@@H]4C[C@H](O)CC[C@]4(C)[C@H]3CC[C@]12C (stereo not given in full)  5.01
33. O=C(O)[C@H]1C[C@H]2CC[C@@H]1C2  5.08
34. N#CC(C#N)=NNc1cccc(Cl)c1Cl  5.15
35. C[C@@H]1CC[C@H](C)[C@@H]1C(=O)O  5.4
36. Cc1nnc(NS(=O)(=O)c2ccc(N)cc2)s1  5.46
37. O=c1cccc(O)cc1O  5.76
38. O=C1[C@H]2CCCC[C@H]2C(=O)N1O  6
39. CCC1(C)OC(=O)NC1=O (stereo not given)  6
40. C[n+]1ccc2cc(O)ccc2c1  6.06
41. CNC(=O)Oc1ccc2c(c1)[C@@]1(C)CC[NH+](C)[C@H]1N2C  6.12
42. Nc1ccc(S(=O)(=O)Nc2cncnc2)cc1  6.62
43. Oc1ccccc1C1=[NH+]CCN1  6.63
44. Sc1cccnc1  7.01
45. Cc1ccc2nc3ccc(O)cc3nc2c1  7.2
46. CCCCCc1c(-c2ccccc2)nn(-c2ccccc2)c1O  7.3
47. CC(c1ccccc1)[N+](=O)[O-] (stereo not given)  7.39
48. Brc1ccc2c(c1)-c1ccccc1C2[P+](c1ccccc1)(c1ccccc1)c1ccccc1 (stereo not given)  7.53
49. NNC(=O)C(F)(F)C(F)(F)F  7.92
50. Cc1cc(Cc2cc(C)c(O)c(C)c2)c(O)c([N+](=O)[O-])c1  7.98
51. CCc1cc2c(C)cc(=O)oc2cc1O  8.01
52. Cc1cc(S(=O)(=O)N(CCO)CCO)cc(C)c1O  8.25
53. Cc1ccc(O)cc1[N+](C)(C)C  8.28
54. O=C1Oc2ccccc2C(=O)C1Cc1c([O-])c2ccccc2oc1=O (stereo not given)  8.3
55. Cc1csc(-c2ccc(NS(=O)(=O)c3ccc(N)cc3)cc2)n1  8.5
56. Oc1cccc2ncccc12  8.54
57. N#Cc1cccc(O)c1  8.63
58. Oc1cccc2cncnc12  8.65
59. COc1ccc(O)cc1[N+](=O)[O-]  8.68
60. Nc1nc(C(F)(F)F)c2[nH]cnc2n1  8.87
61. CCCCCCCCCCCCCC(=O)N(O)c1ccccc1  9.05
62. CC(=O)CC(=O)CC(C)C  9.07
63. OC(CS)CS  9.17
64. Cc1csc(-c2cccc(NS(=O)(=O)c3ccc(N)cc3)c2)n1  9.2
65. CC(=O)C(Cc1ccc([N+](=O)[O-])cc1)C(C)=O  9.54
66. CCCCCCC(=O)NO  9.62
67. C[N+](C)(C)CCCc1ccc(O)cc1  9.8
68. COc1cc2c(cc1OC)[C@@H]1Cc3ccc(OC)c(O)c3[C@H](C2)N1C  9.85
69. C=CCc1ccc2cccnc2c1O  10.1
70. Cc1cc(N)c2ccccc2c1O  10.1
71. Nc1cc(O)ccc1O  10.1
72. CC(C)(S)C(C(=O)[O-])n1ccnc1Cc1ccccc1 (stereo not given)  10.5
73. C[N+](C)(C)[CH2][Sn]([CH3])([CH3])[CH3]  10.6
74. CCCS  10.6
75. Cc1cc(O)c(C(C)C)cc1C  10.8
76. O=C(C[n+]1ccccc1)c1ccccc1  10.9
77. C/C(=N\O)C(=O)[N-]O  11
78. [NH-]S(=O)(=O)c1nnc(Nc2ccccc2)s1  11.1
79. NC(=N\O)/C(N)=N/O  11.3
80. CN(C)c1ccc(/C=N/O)cc1  11.3
81. CC(=O)c1cccc(NC(N)=S)c1  12.1
82. [O-]c1ccccc1/C=N/O  12.1
83. CC1(C)CC=CC(=O)C1  12.4
84. Nc1ccc(C(=O)[O-])c2ncccc12  12.6

Same assay, conditions: basic group

In order of rising pKa:
1. Clc1ccc(/C=C/c2nnnn2-c2ccccc2)cc1  -2.54
2. C(=C\c1nnnn1-c1ccccc1)/c1ccccc1  -2.3
3. [S-]c1cnc2ccccc2[nH+]1  -1.11
4. N#CC(C#N)=NNc1cccc(Cl)c1Cl  -0.71
5. NC(N)=O  0.4
6. COc1nc2ccccc2nc1C  1.38
7. Cc1cc(-c2ccccc2)n(-c2ccc(C(=O)O)cc2)n1  1.59
8. Nc1nc(C(F)(F)F)c2[nH]cnc2n1  1.85
9. Nc1ccc(S(=O)(=O)Nc2cncnc2)cc1  1.9
10. Cc1cc([O-])[nH+]cn1  2.15
11. Cc1nnc(NS(=O)(=O)c2ccc(N)cc2)s1  2.19
12. Sc1cccnc1  2.28
13. Nc1ccc([NH3+])cc1  2.86
14. NC(=N\O)/C(N)=N/O  2.97
15. CC1(C)CC(=O)C=C(N2CCCC2)C1  3.15
16. Oc1cccc2cncnc12  3.41
17. COC(=O)c1c2ccccc2nc2ccccc12  3.45
18. Nc1ccc(-c2cnc(-c3ccccc3)o2)cc1  3.68
19. CN[C@@H]1[C@@H](C)[C@@H]1[NH2+]C  3.68
20. Cc1ccccc1/C(=N\CCC[NH+](C)C)c1ccccc1N  3.82
21. Cc1cc(C)n(C)n1  3.96
22. Brc1ccnc2c1ccc1cccnc12  4.03
23. Cc1cc(C)c(C)c(N)c1C  4.3
24. Cc1ccccc1C(=NCCC[NH+](C)C)c1ccccc1C  4.3
25. N=C(Sc1ccccc1)c1ccccc1  4.48
26. C=CCc1ccc2cccnc2c1O  4.52
27. C[N+](C)(C)CCOC(=O)/C=C/c1c[nH]cn1  4.6
28. c1ccc(-c2cccc(-c3ccccn3)n2)nc1  4.66
29. CC(=O)Nc1ccc2nc3ccccc3cc2c1  4.7
30. CNc1ccccc1  4.8
31. CN(CC[NH+](C)C)c1ccnc2cccc([N+](=O)[O-])c12  4.86
32. O=C([O-])[C@@H]1O[C@H](Oc2cccc3ncccc23)[C@@H](O)[C@H](O)[C@H]1O  4.91
33. Cc1cc(C)nc(N)n1  4.93
34. Nc1ccc2[nH]c(=O)[nH]c2c1  5
35. Oc1cccc2ncccc12  5.2
36. N#CCCNCCC#N  5.23
37. CC(C)/[NH+]=C/N(C)c1ccc(-c2c[nH]cn2)cc1  5.25
38. c1ccc(NC2CCCC2)cc1  5.3
39. NC1=[NH+][C@H]2C[C@@H](N1)N[C@@H]2C(=O)[O-]  5.5
40. Cn1cc(N)cn1  5.52
41. CCNc1nc(N)nc(NCC)n1  5.52
42. COc1ccc(N(C)C)cc1  5.86
43. OCCN(CCO)Cc1nc2ccccc2[nH]1  5.93
44. CCCc1nc2cc(OCC)ccc2[nH]1  6.12
45. CN(C)c1ccc(N(C)C)cc1  6.37
46. O=C1N[C@@H](Cc2cnc[nH]2)C(=O)N[C@H]1Cc1cnc[nH]1  6.54
47. CN1CCCN1C  6.67
48. CC[NH+](CC)CCN  6.76
49. Cc1ccc(C2CN2)cc1 (stereo not given)  6.76
50. Cc1nc2cc(N)ccc2[nH]1  6.95
51. CC(C)(S)C(C(=O)[O-])n1ccnc1Cc1ccccc1 (stereo not given)  7
52. CCNN(CC)CC  7.08
53. CCN(CC)c1ccc(C)cc1  7.18
54. CCCCCCCCCCN(CCO)CC(O)CC (stereo not given)  7.2
55. CCN(C)N(CC)CC  7.3
56. Nc1ccc2cc3c(ccc4ccccc43)nc2c1  7.42
57. Cc1ccnc(N)c1  7.48
58. Cc1nn(C)c(N(C)C(=O)CN)c1C(=O)c1ccccc1F  7.52
59. Nc1ccnc(-c2cccc(Cl)n2)c1  7.7
60. Nc1nccc2c1ncn2CCOCP(=O)([O-])[O-]  7.87
61. CCCSC(=N)c1ccccc1  8.1
62. NC(Cc1ccccc1)c1nnn[n-]1 (stereo not given)  8.18
63. Cc1ccc(CN2CC(O[Si](C)(C)C)C2)cc1  8.24
64. Nc1ccc(C(=O)[O-])c2ncccc12  8.46
65. C=CCN(C)C  8.72
66. CN(C)CCCNc1ccnc2ccccc12  8.85
67. CN(C)CCCN(C)CCC[NH+](C)C  9
68. CN[C@H]1C[C@]1(C)NC  9.05
69. NC[C@@H](O)[C@H]1NC(N)=[NH+][C@@H]1C(=O)[O-]  9.3
70. CNCCc1ccc(O)cc1  9.36
71. CC(C)NCC(O)COc1ccccc1 (stereo not given)  9.45
72. CCCCCCCCNCc1ccc(C)cc1  9.47
73. COc1ccc(C[C@H](C)N)cc1OC  9.6
74. CC(C)N1CCC(NN)CC1  9.65
75. COCCN  9.67
76. CCN(CC)CC(O)CN(CC)CC  9.8
77. CN(C)c1ccc(C2=CN3CCC2CC3)cc1  9.82
78. Cn1cnc2c([O-])nc(N)nc21  9.92
79. NCCCc1cccnc1  10.1
80. CC(C)(CN)CN  10.2
81. CCN(CC)CCCC(C)Nc1cc(OC)cc2cccnc12 (stereo not given)  10.3
82. CCCN(CCC)CCC  10.5
83. CN(C)C1CC(C)(C)NC(C)(C)C1  10.6
84. CCCCN1CCCCC1C (stereo not given)  10.7
85. CCCCCCCCN  10.8
86. NCCCCCCC(=O)[O-]  10.9
87. Nc1cccc2nc3ccccc3c(N)c12  11
88. CN1[C@H]2CC[C@@H]1[C@H](C(=O)[O-])[C@H](O)C2  11.1
89. CCCCCNCCCCC  11.2
90. C1CC2CCCN2C1  11.7
91. CCOc1ccc2ccc(OCC)c(N3CCOCC3)c2c1N1CCOCC1  12.5
